The text below walks through data of PubChem BioAssay (NCI).

Test in all cases: growth of human tumour cells (NCI), 48 h
In test [1] the test system is A549 NSCLC.
The subject of test [2] is TK-10 renal.
For test [3], the system named is SK-MEL-28 melanoma.
For test [4], the system named is SK-OV-3 ovarian.
Test [5] has as its system NCI-H23 lung.
Test [6] concerns SN12C renal.
Test [7] concerns SK-MEL-5 melanoma.
Test [8] relates to MDA-MB-231 breast.
In test [9] the test system is PC-3 prostate.
In test [10] the test system is BT-549 breast.

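Exposure lasted 48 hours, with cells grown in 96-well plates and compounds tested at five concentrations. TGI denotes the concentration required for complete inhibition of growth.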

For the molecule `O=C1C(Cl)C(c2ccc(Cl)cc2)N1n1cnc2ccccc2c1=O` (stereo not drawn), the TGI in test [1], in test [2], in test [3], in test [4], in [5] and in [6] was over 100 µM each time. The same molecule yielded a TGI in test [7] of over 100 µM.
Regarding `O=C1/C(=C/c2ccc(Cl)cc2)NC(=S)N1CN1CCOCC1`, the TGI in test [1], in test [8], in [2], in test [3], in test [4] and in test [5] was over 100 µM throughout. The TGI in [6], in [9] and in [7] was over 100 µM in each case.
Regarding `CN(C)CCCSc1c2ccccc2nc2cc(NCC(=O)Nc3ccccc3-c3ccccc3NC(=O)CNc3ccc4c(SCCCN(C)C)c5ccccc5nc4c3)ccc12`, the TGI in test [1], in test [2], in test [3], in test [4], in test [5] and in test [6] was over 100 µM in each case. In test [7], this molecule showed a TGI of over 100 µM.
In the case of `CCOC(=O)c1nc2ccc(Cl)cc2c2c1CCO2`, the TGI in test [1], in test [2], in test [3], in [4], in [5] and in test [6] was over 100 µM each time. The molecule further had a TGI in [7] of over 100 µM.
Regarding `COc1ccc(C2CCC(Cl)(OC)CC2C=O)cc1` (stereo not drawn), the TGI in test [1], in test [2], in test [3], in test [4], in test [5] and in test [6] was over 100 µM each time. In addition, the TGI in test [7] is over 100 µM.
As for `CO/C(=N\N=C\c1ccc(OC)cc1OC)c1ccncc1`, the TGI in test [1], in test [2], in test [3], in test [4], in [5] and in test [6] was over 10 µM each time. In addition, the TGI in [9] and in test [7] was over 10 µM each time.
`NC12CC3CC(C1)CC(Cl)(C3)C2`: the TGI in test [1], in test [2], in test [3], in test [4] and in test [5] was over 100 µM each time.
Consider `O=[N+]([O-])/C(Cl)=C(\Nc1ccccc1)C(Cl)=C(Cl)Cl`, for which the TGI in [1] was 95 µM; in test [8] it was 79.6 µM; in [2] it was over 100 µM; in [3], over 100 µM; in test [4], over 100 µM; in test [5] it was over 100 µM. Besides, the TGI in test [6] was over 100 µM; in test [9], over 100 µM; in test [7], 47 µM.
Regarding `Cc1nccc2c1cnc1ccnn12`, the TGI in [1], in test [2], in test [3], in test [4], in [5] and in test [6] was over 100 µM in each case. In test [7], this molecule had a TGI of over 100 µM.
Turning to `CCOC(OCC)c1ccc(/C=C/c2cc(OC)c(OC)c(OC)c2)cc1`, the TGI was determined as 95.2 µM in test [1]; 82 µM in [2]; 56.7 µM in [3]; 36.9 µM in [6]; 28.5 µM in test [7].
For the molecule `COc1ccc(-c2onc(-c3c(C)cc(C)cc3C)c2C2=NCCCN2)cc1`, the TGI in test [1] is over 100 µM; in [3], over 100 µM; in test [4], over 100 µM; in test [5], over 100 µM; in test [6], over 100 µM; in test [7], 60.9 µM.
`CO[C@@](c1ccccc1)(c1nc(C#N)c(N)o1)C(F)(F)F`: the TGI in [1], in test [8], in test [2], in [3], in test [4] and in [5] was over 100 µM each time. For the same molecule, the TGI in test [6], in test [9] and in test [7] was over 100 µM each time.
Regarding `CC(=O)OC1OC2C(NC(=O)OC(C)(C)C)C1CC2(OCc1ccccc1)OCc1ccccc1` (stereo not drawn), the TGI in test [1] is over 100 µM; in [2], 44.3 µM; in test [3] it was 57.2 µM; in [4], 74.9 µM; in [5], 41.7 µM; in test [6] it was 75.2 µM. The molecule also registered a TGI in [7] of 33.1 µM.
Regarding `Cc1cc(S(=O)(=O)Nc2nc(N)nc(N3CCOCC3)n2)c(SCC(=O)O)cc1Cl`, the TGI in [1], in [10], in test [2], in [3], in [4] and in test [5] was over 10 µM throughout. Further, the TGI in test [6], in test [9] and in test [7] was over 10 µM each time.
As for `COc1ccc(/C=C2\N=C(c3ccccc3)N(Nc3nnc(NN4C(=O)/C(=C/c5ccc(OC)cc5)N=C4c4ccccc4)c4ccccc34)C2=O)cc1`, the TGI in test [1], in test [3], in test [5], in test [6] and in [7] was over 100 µM throughout.
`Cc1[nH]n(-c2nc3c(c(=O)[nH]2)CCC3)c(=O)c1CCO`: the TGI in test [1], in [8], in test [2], in test [3], in test [4] and in [5] was over 100 µM throughout. In addition, the TGI in [6], in test [9] and in test [7] was over 100 µM throughout.
For the molecule `COc1ccc(CNc2nc(NCc3ccc(OC)cc3)nc(NC(C)C)n2)cc1`, the TGI in [1] is 33.7 µM; in [2] it was 70.4 µM; in test [3] it was over 100 µM; in test [4] it was over 100 µM; in test [5], 30.8 µM; in test [9], 23.9 µM. In test [7], the TGI stood at 16.5 µM.
